Reference: PMC3283556, “The Activities of Current Antimalarial Drugs on the Life Cycle Stages of Plasmodium: A Comparative Study with Human and Rodent Parasites” (PLoS Medicine, 2012)
“Also recorded” adds a separate entry of the source. Like-named read-outs stand apart in the source and are kept apart here.

How the values were obtained:
[1] = system: Plasmodium oocysts; assay: Oocyst development / sporogony, Plasmodium species not stated at the place; assay type: in vivo; conditions: for inhibition at 10 µM: Plasmodium, box linked to oocysts, read-out: Inhibition at 10 μM (oocysts, Figure 5); for effect on sporogony / oocyst production: species not given
Method: (§1) Membrane feeds were performed as described previously. Briefly, PbGFPcon-infected mouse blood was mixed with compounds, immediately placed into membrane feeders (39°C) and offered for 30 min to 80–100 overnight-starved A. stephensi (SDA 500 strain). After 7–9 d at 19°C/80%RH, mosquito midguts were dissected out. Midguts were fixed with paraformaldehyde and oocyst number was determined microscopically by semi-automated analysis as previously described.
Gametocyte cultures were produced according to the same protocol as the Pf exflagellation assay. Pooled gametocyte cultures were evenly divided between compounds in fresh medium and incubated at 37°C for 24 h. The parasite pellets were then resuspended in fresh RBCs and human serum treated with the compounds to a 50% haematocrit and immediately fed to mosquitoes as described above and then maintained at 27°C/60%RH for 10–12 d before dissection and counting. […]

[2] = system: P. falciparum mature gametocytes / male gamete exflagellation; assay: P. falciparum exflagellation assay; assay type: cell-based, Plasmodium falciparum; conditions: for inhibition at 10 µM: Plasmodium falciparum
Method: After 24 h, exflagellation was triggered by a temperature decrease to ∼21°C and observed 20 min later under the microscope. Highly motile exflagellation centres were recorded for ∼50–150 adjacent fields of view and reported per 10,000 RBCs.
(§2) (A) Assays examined exflagellation (P. falciparum), ookinete formation (P. berghei), or oocyst formation (P. falciparum). All antimalarials were screened at 10 µM. (B) The biological content of the in vitro P. berghei ookinete assay spans gamete formation, fertilization, zygote development, and ookinete formation. […] (D) The in vitro P. falciparum exflagellation assay exposes mature gametocytes to antimalarials for 24 h before triggering exflagellation. […] All experiments in triplicate. (E) The in vivo P. falciparum oocyst assay differs from the P. berghei oocyst assay in that mature gametocytes were exposed to the antimalarials in culture for 24 h before feeding to mosquitoes.

[3] = system: P. falciparum and P. vivax; parameters: method as in personal communication, MMV; conditions: phase IIa, P. falciparum and P. vivax patients; ref personal communication, MMV; cited from earlier work
[4] = system: P. yoelii liver stage parasites (liver schizonts); assay: P. yoelii liver stage assay in HepG2 cells (EEF immunofluorescence); assay type: cell-based, Plasmodium yoelii; conditions: Plasmodium yoelii
Method: (§3) 7.5×10^3 HepG2 cells in 50 µl of medium (1.5×10^5 cells/ml) were seeded in 384 well plates (Aurora 384 IQ-EB Black/Clear Plates) 20–26 h prior to the actual infection. 2 h prior to infection, 50 nl of compound in DMSO (0.1% final DMSO concentration per well) were transferred with a PinTool (GNF Systems) into the assay plates (10 µM final concentration). P. yoelii sporozoites were freshly dissected from infected A. stephensi mosquito salivary glands and filtered twice with a 40-µm strainer. The HepG2 cells were then infected with 8×10^3 sporozoites per well. After infection and 1-h incubation at 37°C, the cultures were washed, new media and compound added, and further incubated with 5-fold increased concentration of penicillin/streptomycin for 48 h at 37°C before exoerythrocytic forms (EEFs) quantification of infected cells by immunofluorescence.
After washing with 1×PBS and fixation of the cells with 4% paraformaldehyde solution (EMS), membranes were permeabilised with 0.5% Triton-X-100 (Thermo Fisher Scientific) and EEFs were stained using a mouse polyclonal serum raised against the Plasmodium heat shock protein 70 (HSP70), an Alexa goat antimouse IgG, Fca-specific DyLight 649 secondary antibody (Invitrogen), and the Hoechst 33342 nucleic acid dye (Invitrogen). Stained EEFs were then quantified using the Opera Confocal High Content Screening system (PerkinElmer). Images were collected using a 20× magnification at a binning of 2 using a 365 Xeon arc lamp illumination to detect the nuclei and 635-nm laser line to excite DyLight649.
(§4) High-content imaging of infected HepG2-CD81 cells was performed as described in Meister et al.. Wells were analysed using a custom Acapella (PerkinElmer) script parameterized for this assay. In brief, images from fields inside the well were first discarded as out of focus when the intensity in the nuclear area was too low. Then hepatic cells were counted by detecting the nuclei labelled with Hoechst 33342 and parasites were segmented using the HSP70 immuno-labelling. Morphology-based (e.g., area, roundness) and intensity-based features were calculated for each object detected including the hepatocyte nuclei and the parasites. Parasitemia was set as the ratio between parasite number (Alexa fluor positive) and the hepatocyte nuclei count, determined at the same time.
(§5) When an infected mosquito bites a host, ∼100 sporozoites may be injected into the dermis from where they rapidly invade liver cells,[33]. This infective step represents the second bottleneck during transmission and therefore another potentially vulnerable point for intervention. In the absence of a practical liver stage assay measuring the formation of P. falciparum/P. vivax liver schizonts, an equivalent assay was developed in P. yoelii and used to assess the activity of the collection of molecules against this specific stage. Specifically, P. yoelii sporozoites were dissected from the salivary glands of infected mosquitoes and were allowed to invade human hepatocarcinoma cells expressing the CD81 protein. The development of the liver schizonts was monitored by immunofluorescence staining using an HSP70 antibody specific to the parasite (Figure 4A).
Figure 4 Validation and results of anti-infectives tested against P. yoelii liver stage parasites. (A) Opera-generated images from a time point experiment using a 20× objective lens. P. yoelii parasites (red) were visualized using a mouse polyclonal HSP70 antibody, and the HepG2 cells (green) were stained with Hoechst 33342 nucleic acid dye. […] (B) A dose response plot with atovaquone from data generated from the Opera imaging system. The median areas of compound-treated parasites were compared to untreated DMSO controls to determine the degree of inhibition.

[5] = parameters: method as in PMID 22759078, PMID 17053895, PMID 18694333, PMID 18840754, PMID 19776738; conditions: human blood, therapeutic / relevant doses; cited from earlier work
[6] = system: P. berghei ookinete formation; assay: P. berghei ookinete development assay; assay type: cell-based, Plasmodium berghei; conditions: for effect on ookinete formation: 10 µM; for inhibition at 10 µM: Plasmodium berghei, box linked to ookinete, read-out: Inhibition at 10 μM (ookinete, Figure 5)
Method: Compounds and P. berghei gametocyte-infected blood were dispensed in a 96-well plate containing ookinete medium. After 24 h at 19°C, Giemsa-stained ookinetes were counted under the microscope (×40) as previously described,[28].
as §2, with “Figure 3 The transmission-blocking potential of selected antimalarials in three bioassays that cover different phases of Plasmodium vector stage development. (A)” for “(A)”, “formation. Ookinete formation was insensitive to most of the antimalarials tested.” for “formation.”, “mosquitoes. […] NPC1161-B, lumefantrine, halofantrine, and mefloquine +RS isomer were also active. (n = 4–61 observations; average ± standard error of the mean [SEM]).” for “mosquitoes.”

[7] = system: P. berghei ookinete formation; assay: P. berghei ookinete development assay; assay type: cell-based; conditions: Plasmodium berghei; medium throughput fluorescent ookinete assay
[8] = system: P. falciparum asexual blood stage parasites (strains NF54, D6, K1, W2, 7G8, TM90C2A, V1/S); assay: [3H]-hypoxanthine incorporation growth inhibition assay, asexual blood stage; assay type: cell-based, Plasmodium falciparum
Method: In vitro antimalarial activity was measured using the [^3H]-hypoxanthine incorporation assay with various strains of P. falciparum obtained from MR4. Results were expressed as the concentration resulting in 50% inhibition (IC50).
The half-maximal inhibitory concentrations (IC50) were determined for each molecule (Table S2).
Figure 2 The potencies of selected antimalarials against asexual blood stages. Main classes of antimalarials were tested against the blood stage of seven Plasmodium falciparum strains in the [^3H]hypoxanthine incorporation assay as described in Vennerstrom et al.. The strains tested here (obtained from MR4) were two drug-sensitive strains NF54 and D6 and five drug-resistant strains: K1, resistant to chloroquine (CQ) and pyrimethamine (PYR), origin Thailand, carries mutations in genes pfmdr1, pfcrt, pfdhfr, pfdhps; W2, resistant to CQ, PYR, quinine, cycloguanil, and sulfadoxine, origin Vietnam; 7G8, resistant to CQ and PYR, origin Brazil; TM90C2A, resistant to CQ, PYR, and MFQ, origin Thailand; and V1/S, resistant to CQ, PYR and cycloguanil, origin Vietnam. Results are expressed as the concentration resulting in 50% growth inhibition (IC50).Values are means of ≥3 independent experiments. (A) Endoperoxides. (B) 4-AQs. (C) 8-AQs and amino alcohols. (D) Antifolates, antibiotics, and others.

[9] = system: P. falciparum oocyst formation; assay: Standard membrane feed assay, P. falciparum oocysts in A. stephensi; assay type: in vivo, Plasmodium falciparum; conditions: 10 µM, gametocytes exposed 24 h before feeding
Method: Gametocyte cultures were produced according to the same protocol as the Pf exflagellation assay. Pooled gametocyte cultures were evenly divided between compounds in fresh medium and incubated at 37°C for 24 h. The parasite pellets were then resuspended in fresh RBCs and human serum treated with the compounds to a 50% haematocrit and immediately fed to mosquitoes as described above and then maintained at 27°C/60%RH for 10–12 d before dissection and counting.
as §2, with “Figure 3 The transmission-blocking potential of selected antimalarials in three bioassays that cover different phases of Plasmodium vector stage development. (A)” for “(A)”, “formation. Ookinete formation was insensitive to most of the antimalarials tested.” for “formation.”, “mosquitoes. […] NPC1161-B, lumefantrine, halofantrine, and mefloquine +RS isomer were also active. (n = 4–61 observations; average ± standard error of the mean [SEM]).” for “mosquitoes.”

[10] = system: P. berghei oocyst formation; assay: Standard membrane feed assay, P. berghei oocysts in A. stephensi; assay type: in vivo, Plasmodium berghei; conditions: for transmission-blocking effect on P. berghei oocysts (words): 10 µM
Method: as §1
Supplementary file pmed.1001169.s001.tif: Figure S1 The transmission-blocking potential of selected compounds against P. berghei in standard membrane feeding assays. All antimalarials were screened at 10 µM in triplicate in independent experiments. The biological content of this assay spans gamete formation through to occyst development all within the gut of the mosquito. […] (TIF) Click here for additional data file.

[11] = system: HepG2 cells; assay: Growth retardation of HepG2 cells
Method: as §3, §4, §5

[12] = 10 µM, 24 h exposure of mature gametocytes
[13] = 10 μM, box linked to gametocytes/exflagellation, read-out: Inhibition at 10 μM (gametocytes/exflagellation, Figure 5)
[14] = HepG2, box linked to liver schizont, read-out: IC50 (liver schizont, Figure 5)
[15] = read-out: inhibition of exflagellation, 10 µM, 24 h exposure of mature gametocytes

c1cc([C@H]2CC[C@]3(CC2)OO[C@]2(O3)C3CC4CC(C3)CC2C4)ccc1OCCN1CCOCC1 [OZ439]
inhibition at 10 µM [1]: > 90%
effect on sporogony / oocyst production [1]: impact sporogony
effect on exflagellation (words) [2, 12]: strong inhibitors of gametocyte maturation/gamete formation
inhibition at 10 µM [2, 13]: > 60%
clinical efficacy [3]: equivalent efficacy in the treatment of P. falciparum and P. vivax patients

CO[C@H]1O[C@@H]2O[C@@]3(C)CC[C@H]4[C@H](C)CC[C@@H]([C@H]1C)[C@@]24OO3 [artemether]
IC50 [4, 14]: < 1000 nM
Cmax [5]: 0.1 µM

O=C1C(O)=C([C@H]2CC[C@H](c3ccc(Cl)cc3)CC2)C(=O)c2ccccc21 [atovaquone]
IC50 [4, 14]: < 1000 nM
effect on ookinete formation [6]: strongly inhibited ookinete formation
inhibition at 10 µM [6]: > 80%
IC50 [7]: 65 nM
potency range against blood stages ([8]; P. falciparum blood stages): subnanomolar range
IC50 ([8]; Plasmodium falciparum, Erythrocyte, box linked to blood stage schizont, read-out: IC50 (erythrocyte schizont, Figure 5)): < 1 nM
fold difference in potency between strains ([8]; between the strains D6 and V1/S): ≤ 10 fold

CCCCN(CCCC)CC(O)c1cc(Cl)cc2c1-c1ccc(Cl)cc1/C2=C/c1ccc(Cl)cc1 (stereo not drawn) [lumefantrine]
transmission-blocking effect on P. falciparum oocysts (words) [9]: active; also recorded: impaired sporogony
transmission-blocking effect on P. falciparum oocysts (words) ([9]; listed as Lumefantrine): showed activity
inhibition at 10 µM [1]: > 90%
effect on sporogony / oocyst production [1]: impairs development in the vector
effect on exflagellation (words) [2, 12]: only moderate or no inhibition of exflagellation
effect on exflagellation (words) ([2]; 10 µM, 24 h exposure of mature gametocytes, listed as Lumefantrine): little activity
transmission-blocking effect on P. berghei oocysts (words) [10]: impaired sporogony; also recorded: most notable transmission-blocking activity
transmission-blocking effect on P. berghei oocysts (words) ([10]; listed as Lumefantrine): showed activity
inhibition at 10 µM ([10]; Plasmodium berghei): > 90%
Cmax [5]: 13.9 µM
effect on ookinete formation [6]: little activity
IC50 ([8]; Plasmodium falciparum): < 4 nM

OC(c1cc(C(F)(F)F)nc2c(C(F)(F)F)cccc12)C1CCCCN1 (stereo not drawn) [mefloquine (+RS)]
transmission-blocking effect on P. falciparum oocysts (words) [9]: totally blocked transmission
transmission-blocking effect on P. falciparum oocysts (words) ([9]; listed as mefloquine +RS isomer): active
inhibition at 10 µM [1]: > 90%
inhibition at 10 µM [2, 15]: > 80%
inhibition at 10 µM [2, 13]: > 60%
IC50 ([8]; strain not specified): < 10 nM

COc1ccc2nc3cc(Cl)ccc3c(Nc3cc(CN4CCCC4)c(O)c(CN4CCCC4)c3)c2n1 [pyronaridine]
effect on exflagellation (words) [2, 12]: inhibited P. falciparum exflagellation
effect on exflagellation (words) ([2]; 10 µM, 24 h exposure of mature gametocytes, listed as Pyronaridine): inhibited exflagellation totally
inhibition at 10 µM [2, 15]: > 80%
inhibition at 10 µM [2, 13]: > 60%
IC50 [4, 14]: < 1000 nM
IC50 ([4]; HepG2, development of P. yoelii liver schizonts following infection of HepG2 cells, read-out: IC50 Parasite): 270 ± 130 nM
IC50 ([4]; HepG2, dose response, read-out: IC50 liver stage): < 3000 nM
effect on ookinete formation [6]: strongly inhibited ookinete formation
inhibition at 10 µM [6]: > 80%
IC50 ([11]; Homo sapiens, HepG2, read-out: IC50 HepG2): < 170 nM
CI (cytotoxicity index) ([11]; IC50 HepG2 compared to IC50 parasite): <0.63
IC50 [7]: 6000 nM
IC50 ([8]; Plasmodium falciparum, asexual blood stage, all parasite lines): 2 to 10 nM
